Data: patent publication US20240409585A1, “MACROCYCLIC IMMUNOMODULATORS” (priority 2021, published 2024)
Bridge positions count the residues as written; N and C are the ends. Square brackets hold non-standard residues; d marks the D form. Peptide text beside a SMILES is read from it. * marks the point of attachment. ξ: configuration not given here. Bip(3'-COOH) = N[C@@H](Cc1ccc(-c2cccc(C(=O)O)c2)cc1)C(=O)O; Phe(4-COOH) = N[C@@H](Cc1ccc(C(=O)O)cc1)C(=O)O; Bip = N[C@@H](Cc1ccc(-c2ccccc2)cc1)C(=O)O; Phe(3-OMe) = COc1cccc(C[C@H](N)C(=O)O)c1; Phe(3-Me) = Cc1cccc(C[C@H](N)C(=O)O)c1; Nva(4-oxo) = CC(=O)C[C@H](N)C(=O)O; 3Pal = N[C@@H](Cc1cccnc1)C(=O)O; 4Pal = N[C@@H](Cc1ccncc1)C(=O)O; Cha = N[C@@H](CC1CCCCC1)C(=O)O; Cit = NC(=O)NCCC[C@H](N)C(=O)O; Ile(3ξ) = CCC(C)[C@H](N)C(=O)O; Thr(3ξ) = CC(O)[C@H](N)C(=O)O; ξCha = NC(CC1CCCCC1)C(=O)O; hSer = N[C@@H](CCO)C(=O)O; Carboxymethyl = O=C(O)C*; NMeA = CN[C@@H](C)C(=O)O; Dab = NCC[C@H](N)C(=O)O; Dap = NC[C@H](N)C(=O)O; ξC = NC(CS)C(=O)O

The molecules below were run against T1, PE-labeled human PD-L1-Ig binding to Jurkat cell line over-expressing human PD-1 (Jurkat-PD-1) (Homo sapiens, UniProt Q15116) (assay: Jurkat-PD-1 Cell Binding High-Content Screening Assay (CBA): Method 1). Settings: Jurkat-hPD-1 cells, PE-labeled PD-L1-Ig 20 nM final; read-out: Jurkat HPDL1 PD1 IC50 (uM) (Method 1).
T1 construct: expressed in transfected cells; host or cells: Jurkat
T1 sequence (Q15116 25-288): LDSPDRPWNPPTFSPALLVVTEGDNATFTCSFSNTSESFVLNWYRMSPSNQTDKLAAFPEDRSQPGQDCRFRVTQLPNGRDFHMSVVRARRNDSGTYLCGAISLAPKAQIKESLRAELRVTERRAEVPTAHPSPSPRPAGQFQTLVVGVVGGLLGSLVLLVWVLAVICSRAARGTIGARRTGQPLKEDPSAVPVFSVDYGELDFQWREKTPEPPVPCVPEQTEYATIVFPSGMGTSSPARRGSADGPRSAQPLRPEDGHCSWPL

Row | Compound | IC50 [µM]
1 | CCC(C)[C@@H]1NC(=O)[C@H](Cc2ccc(-c3ccccc3)cc2)NC(=O)[C@H](C(C)C)NC(=O)[C@H](Cc2c[nH]c3ccccc23)NC(=O)[C@H](CC(=O)O)NC(=O)[C@H](Cc2ccc(O)cc2)NC(=O)[C@H](Cc2ccncc2)NC(=O)CSC[C@@H](C(=O)N[C@@H](CC(=O)O)C(=O)N[C@@H](CCN)C(=O)O)NC(=O)[C@H](C(C)O)NC(=O)[C@H](C(C)C)NC(=O)[C@H](CC2CCCCC2)NC(=O)[C@H](CC(N)=O)NC(=O)[C@@H](CC(C)C)NC(=O)[C@H](C)N(C)C1=O (stereo partly drawn) [Compound 2001] ({CH2CO}-[4Pal]YDWV[Bip][Ile(3ξ)][NMeA][dL]N[Cha]V[Thr(3ξ)]CD[Dab]-OH; thioether N-14) | 0.11
2 | CCC(C)[C@@H]1NC(=O)[C@H](Cc2ccc(-c3ccccc3)cc2)NC(=O)[C@H](C(C)C)NC(=O)[C@H](Cc2c[nH]c3ccccc23)NC(=O)[C@H](CC(=O)O)NC(=O)[C@H](Cc2ccc(O)cc2)NC(=O)[C@H](CC(N)=O)NC(=O)CSC[C@@H](C(=O)N[C@@H](CC(=O)O)C(=O)N[C@@H](CCN)C(=O)O)NC(=O)[C@H](C(C)O)NC(=O)[C@H](C(C)C)NC(=O)[C@H](CC2CCCCC2)NC(=O)[C@H](CC(N)=O)NC(=O)[C@@H](CC(C)C)NC(=O)[C@H](C)N(C)C1=O (stereo partly drawn) [Compound 2002] ({CH2CO}-NYDWV[Bip][Ile(3ξ)][NMeA][dL]N[Cha]V[Thr(3ξ)]CD[Dab]-OH; thioether N-14) | 0.14
3 | CCC(C)[C@@H]1NC(=O)[C@H](Cc2ccc(-c3ccccc3)cc2)NC(=O)[C@H](C(C)C)NC(=O)[C@H](Cc2c[nH]c3ccccc23)NC(=O)[C@H](CC(=O)O)NC(=O)[C@H](Cc2ccc(O)cc2)NC(=O)[C@H](CC(N)=O)NC(=O)CSCC(C(=O)NCC(=O)N[C@@H](CCN)C(=O)O)NC(=O)[C@H](C(C)O)NC(=O)[C@H](C(C)C)NC(=O)[C@H](CC2CCCCC2)NC(=O)[C@H](CC(N)=O)NC(=O)[C@@H](CC(C)C)NC(=O)[C@H](C)N(C)C1=O (stereo partly drawn) [Compound 2003] ({CH2CO}-NYDWV[Bip][Ile(3ξ)][NMeA][dL]N[Cha]V[Thr(3ξ)][ξC]G[Dab]-OH; thioether N-14) | 0.02
4 | CC(C)C[C@@H]1NC(=O)[C@H](CC(N)=O)NC(=O)[C@@H](CC(C)C)NC(=O)[C@H](C)N(C)C(=O)[C@H](CCCNC(N)=O)NC(=O)[C@H](Cc2ccc(-c3ccccc3)cc2)NC(=O)[C@H](C(C)C)NC(=O)[C@H](Cc2c[nH]c3ccccc23)NC(=O)[C@H](CC(=O)O)NC(=O)[C@H](Cc2ccc(O)cc2)NC(=O)[C@H](Cc2ccccc2)NC(=O)CSC[C@@H](C(=O)N[C@@H](C)C(=O)N[C@@H](CN)C(=O)O)NC(=O)[C@H](CO)NC(=O)[C@H](C(C)C)NC1=O [Compound 2004] ({CH2CO}-FYDWV[Bip][Cit][NMeA][dL]NLVSCA[Dap]-OH; thioether N-14) | 0.02
5 | CCC(C)[C@@H]1NC(=O)[C@H](Cc2ccc(-c3ccccc3)cc2)NC(=O)[C@H](C(C)C)NC(=O)[C@H](Cc2c[nH]c3ccccc23)NC(=O)[C@H](CC(=O)O)NC(=O)[C@H](Cc2ccc(C(=O)O)cc2)NC(=O)[C@H](Cc2ccc(OCC(=O)O)cc2)NC(=O)CSC[C@@H](C(=O)NCC(=O)N[C@@H](CN)C(=O)O)NC(=O)[C@H](C(C)O)NC(=O)[C@H](C(C)C)NC(=O)[C@H](CC2CCCCC2)NC(=O)[C@H](CC(N)=O)NC(=O)[C@@H](CC(C)C)NC(=O)[C@H](C)N(C)C1=O (stereo partly drawn) [Compound 2005] ({CH2CO}-Y(Carboxymethyl)[Phe(4-COOH)]DWV[Bip][Ile(3ξ)][NMeA][dL]N[Cha]V[Thr(3ξ)]CG[Dap]-OH; thioether N-14) | 0.02
6 | CCC(C)[C@@H]1NC(=O)[C@H](Cc2ccc(-c3ccccc3)cc2)NC(=O)[C@H](C(C)C)NC(=O)[C@H](Cc2c[nH]c3ccccc23)NC(=O)[C@H](CC(=O)O)NC(=O)[C@H](Cc2cccc(OC)c2)NC(=O)[C@H](Cc2cccnc2)NC(=O)CSC[C@@H](C(=O)NCC(=O)N[C@@H](CN)C(=O)O)NC(=O)[C@H](C(C)O)NC(=O)[C@H](C(C)C)NC(=O)[C@H](CC2CCCCC2)NC(=O)[C@H](CC(N)=O)NC(=O)[C@@H](CC(C)C)NC(=O)[C@H](C)N(C)C1=O (stereo partly drawn) [Compound 2006] ({CH2CO}-[3Pal][Phe(3-OMe)]DWV[Bip][Ile(3ξ)][NMeA][dL]N[Cha]V[Thr(3ξ)]CG[Dap]-OH; thioether N-14) | 0.04
7 | CCC(C)[C@@H]1NC(=O)[C@H](Cc2ccc(-c3ccccc3)cc2)NC(=O)[C@H](C(C)C)NC(=O)[C@H](Cc2cccc(C)c2)NC(=O)[C@H](CC(=O)O)NC(=O)[C@H](Cc2ccc(OCC(=O)O)cc2)NC(=O)[C@H](Cc2ccncc2)NC(=O)CSCC(C(=O)N[C@@H](CCC(=O)O)C(=O)N[C@@H](CN)C(=O)O)NC(=O)[C@H](CO)NC(=O)[C@H](C(C)C)NC(=O)[C@H](CC2CCCCC2)NC(=O)[C@H](CC(N)=O)NC(=O)[C@@H](CC(C)C)NC(=O)[C@H](C)N(C)C1=O (stereo partly drawn) [Compound 2007] ({CH2CO}-[4Pal]Y(Carboxymethyl)D[Phe(3-Me)]V[Bip][Ile(3ξ)][NMeA][dL]N[Cha]VS[ξC]E[Dap]-OH; thioether N-14) | 0.01
8 | CCC(C)[C@@H]1NC(=O)[C@H](Cc2ccc(-c3ccccc3)cc2)NC(=O)[C@H](C(C)C)NC(=O)[C@H](Cc2c[nH]c3ccccc23)NC(=O)[C@H](CC(=O)O)NC(=O)[C@H](Cc2ccc(C(=O)O)cc2)NC(=O)[C@H](Cc2ccc(OCC(=O)O)cc2)NC(=O)CSC[C@@H](C(=O)N[C@@H](CCC(=O)O)C(=O)N[C@H](C(N)=O)C(=O)O)NC(=O)[C@H](CO)NC(=O)[C@H](C(C)C)NC(=O)[C@H](CC2CCCCC2)NC(=O)[C@H](CC(N)=O)NC(=O)[C@@H](CC(C)C)NC(=O)[C@H](C)N(C)C1=O (stereo partly drawn) [Compound 2008] | 0.04

Other lines, results leading:

Row | IC50 [µM] | Compound
9 | 0.02 | CC(C)C[C@@H]1NC(=O)[C@H](Cc2c[nH]c3ccccc23)NC(=O)[C@H](CC(=O)O)NC(=O)[C@H](CCO)NC(=O)[C@H](Cc2ccccc2)NC(=O)CSC[C@@H](C(=O)N[C@@H](C)C(=O)N[C@@H](CCC(=O)O)C(N)=O)NC(=O)[C@H](CO)NC(=O)[C@H](C(C)C)NC(=O)[C@H](CC(C)C)NC(=O)[C@H](CC(N)=O)NC(=O)[C@@H](CC(C)C)NC(=O)[C@H](C)N(C)C(=O)[C@H](C(C)C)NC(=O)[C@H](Cc2ccc(-c3ccccc3)cc2)NC1=O [Compound 2009] ({CH2CO}-F[hSer]DWL[Bip]V[NMeA][dL]NLVSCAE-NH2; thioether N-14)
10 | 0.01 | CC(=O)C[C@@H]1NC(=O)[C@H](Cc2ccc(OCC(=O)O)cc2)NC(=O)[C@H](Cc2ccccc2)NC(=O)CSC[C@@H](C(=O)N[C@@H](C)C(=O)N[C@@H](CCCCN)C(N)=O)NC(=O)[C@H](CO)NC(=O)[C@H](C(C)C)NC(=O)[C@H](CC(C)C)NC(=O)[C@H](CC(N)=O)NC(=O)[C@@H](CC(C)C)NC(=O)[C@H](C)N(C)C(=O)[C@H](C(C)C)NC(=O)[C@H](Cc2ccc(-c3ccccc3)cc2)NC(=O)[C@H](CC(C)C)NC(=O)[C@H](Cc2c[nH]c3ccccc23)NC1=O [Compound 2013] ({CH2CO}-FY(Carboxymethyl)[Nva(4-oxo)]WL[Bip]V[NMeA][dL]NLVSCAK-NH2; thioether N-14)
11 | 0.12 | CCC(C)[C@@H]1NC(=O)[C@H](Cc2ccc(-c3ccccc3)cc2)NC(=O)[C@H](C(C)C)NC(=O)[C@H](Cc2c[nH]c3ccccc23)NC(=O)[C@H](CC(N)=O)NC(=O)[C@H](Cc2ccc(OCC(=O)O)cc2)NC(=O)[C@H](Cc2ccncc2)NC(=O)CSC[C@@H](C(=O)N[C@@H](C)C(=O)N[C@@H](CCCCN)C(N)=O)NC(=O)[C@H](C(C)O)NC(=O)[C@H](C(C)C)NC(=O)C(CC2CCCCC2)NC(=O)[C@H](CC(N)=O)NC(=O)[C@@H](CC(C)C)NC(=O)[C@H](C)N(C)C1=O (stereo partly drawn) [Compound 2018] ({CH2CO}-[4Pal]Y(Carboxymethyl)NWV[Bip][Ile(3ξ)][NMeA][dL]N[ξCha]V[Thr(3ξ)]CAK-NH2; thioether N-14)
12 | 0.28 | CCC(C)[C@@H]1NC(=O)[C@H](Cc2ccc(-c3ccccc3)cc2)NC(=O)[C@H](C(C)C)NC(=O)[C@H](Cc2c[nH]c3ccccc23)NC(=O)[C@H](CC(N)=O)NC(=O)[C@H](Cc2ccc(-c3cccc(C(=O)O)c3)cc2)NC(=O)[C@H](Cc2ccncc2)NC(=O)CSC[C@@H](C(=O)N[C@@H](C)C(=O)N[C@@H](CCCCN)C(N)=O)NC(=O)[C@H](C(C)O)NC(=O)[C@H](C(C)C)NC(=O)C(CC2CCCCC2)NC(=O)[C@H](CC(N)=O)NC(=O)[C@@H](CC(C)C)NC(=O)[C@H](C)N(C)C1=O (stereo partly drawn) [Compound 2019] ({CH2CO}-[4Pal][Bip(3'-COOH)]NWV[Bip][Ile(3ξ)][NMeA][dL]N[ξCha]V[Thr(3ξ)]CAK-NH2; thioether N-14)
13 | 0.01 | CC(C)C[C@H]1NC(=O)[C@H](C)N(C)C(=O)[C@H](CCCNC(N)=O)NC(=O)[C@H](Cc2ccc(-c3ccccc3)cc2)NC(=O)[C@H](C(C)C)NC(=O)[C@H](Cc2c[nH]c3ccccc23)NC(=O)[C@H](CC(=O)O)NC(=O)[C@H](Cc2ccc(OCC(=O)O)cc2)NC(=O)[C@H](Cc2ccccc2)NC(=O)CSC[C@@H](C(=O)N[C@@H](C)C(N)=O)NC(=O)[C@H](CO)NC(=O)[C@H](C(C)C)NC(=O)[C@H](CC2CCCCC2)NC(=O)[C@H](CC(N)=O)NC1=O [Compound 2022] ({CH2CO}-FY(Carboxymethyl)DWV[Bip][Cit][NMeA][dL]N[Cha]VSCA-NH2; thioether N-14)
14 | 0.26 | CC(C)C[C@@H]1NC(=O)[C@H](CC(N)=O)NC(=O)[C@@H](CC(C)C)NC(=O)[C@H](C)N(C)C(=O)[C@H](C(C)C)NC(=O)[C@H](Cc2ccc(-c3ccccc3)cc2)NC(=O)[C@H](CCN)NC(=O)[C@H](Cc2c[nH]c3ccccc23)NC(=O)[C@H](CC(=O)O)NC(=O)[C@H](Cc2ccc(O)cc2)NC(=O)[C@H](Cc2ccccc2)NC(=O)CSC[C@@H](C(=O)N[C@@H](C)C(N)=O)NC(=O)[C@H](CO)NC(=O)[C@H](C(C)C)NC1=O [Compound 2025] ({CH2CO}-FYDW[Dab][Bip]V[NMeA][dL]NLVSCA-NH2; thioether N-14)
15 | 0.12 | CC(C)C[C@@H]1NC(=O)[C@H](CC(N)=O)NC(=O)[C@@H](CC(C)C)NC(=O)[C@H](C)N(C)C(=O)[C@H](C(C)C)NC(=O)[C@H](Cc2ccc(-c3ccccc3)cc2)NC(=O)[C@H](CCN)NC(=O)[C@H](Cc2c[nH]c3ccccc23)NC(=O)[C@H](CC(=O)O)NC(=O)[C@H](Cc2ccc(O)cc2)NC(=O)[C@H](Cc2ccccc2)NC(=O)CSC[C@@H](C(=O)N[C@@H](C)C(N)=O)NC(=O)[C@H](CO)NC(=O)[C@H](CC(=O)O)NC1=O [Compound 2026] ({CH2CO}-FYDW[Dab][Bip]V[NMeA][dL]NLDSCA-NH2; thioether N-14)
